PMC10850047, “Exploring the impact of PEGylation on pharmacokinetics: a size-dependent effect of polyethylene glycol on prostate-specific membrane antigen inhibitors” (EJNMMI Research, 2024)
Where two headings read alike, the source gives them in different places.

Columns and labels:
PSMA = biological target: T1, PSMA (Homo sapiens, UniProt Q04609); assay: Competitive cell binding assay against [68Ga]Ga-PSMA-11 on LNCaP cells; conditions: competition with [68Ga]Ga-PSMA-11, natGa-labeled standards, 1 h 37 °C
T1 construct: host or cells: LNCaP
T1 sequence (Q04609 whole entry): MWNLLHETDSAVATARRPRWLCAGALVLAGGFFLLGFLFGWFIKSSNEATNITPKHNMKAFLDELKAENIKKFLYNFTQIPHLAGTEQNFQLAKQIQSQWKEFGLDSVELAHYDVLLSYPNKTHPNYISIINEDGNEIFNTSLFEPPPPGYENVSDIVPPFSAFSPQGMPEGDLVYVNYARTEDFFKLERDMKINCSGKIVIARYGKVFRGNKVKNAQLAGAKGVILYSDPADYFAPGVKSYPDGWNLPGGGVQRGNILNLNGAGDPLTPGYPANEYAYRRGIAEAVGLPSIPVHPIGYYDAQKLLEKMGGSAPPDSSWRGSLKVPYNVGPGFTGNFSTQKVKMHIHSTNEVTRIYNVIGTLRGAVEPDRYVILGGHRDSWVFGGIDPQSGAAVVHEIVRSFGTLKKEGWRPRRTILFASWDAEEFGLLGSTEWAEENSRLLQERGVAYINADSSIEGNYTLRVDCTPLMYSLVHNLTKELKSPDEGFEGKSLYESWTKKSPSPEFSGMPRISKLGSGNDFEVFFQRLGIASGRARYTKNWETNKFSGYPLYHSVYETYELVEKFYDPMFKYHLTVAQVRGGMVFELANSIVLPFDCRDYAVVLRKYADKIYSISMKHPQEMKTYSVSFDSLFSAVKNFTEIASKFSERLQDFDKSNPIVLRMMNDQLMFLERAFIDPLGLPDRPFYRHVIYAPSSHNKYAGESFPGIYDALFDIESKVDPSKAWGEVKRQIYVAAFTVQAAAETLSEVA
Protocol: LNCaP prostate cancer cell line obtained from the American Type Culture Collection (ATCC, Manassas, VA) was used for cell affinity studies. The cells were grown in a meilunbio RPMI 1640 medium (ATCC modified) supplemented with 10% fetal bovine serum and 1% streptomycin/penicillin (Thermo Fisher Scientific, USA) at 37 °C in a humidified 5% CO2 atmosphere. Two days (48 ± 2 h) prior to in vitro experiments, the cells were harvested using trypsin-ethylenediaminetetraacetic acid (EDTA; 0.25% trypsin, 0.02% EDTA) in PBS and centrifuged. The supernatant was disposed, and the cell pellet was resuspended in a culture medium, and LNCaP cells (150,000 cells/well) were counted with a hemocytometer and seeded in poly-L-lysine-coated 24-well plates used in cell binding studies. The cells were then allowed to grow at 37 °C for 48 h. PC3-PIP cells provided by Professor Xiaoyuan Chen (Singapore) require additional Puromycin (2 µg/ml) in addition to the appealed culture conditions. Detailed information regarding uptake and internalization experiments can be found in the previous report.
In order to determine the binding affinity, a competitive cell binding assay was performed. […] The total radioactivity in each well was measured with a gamma counter. […]

[1] = Radiochemical stability in PBS at 37 °C; assay type: physicochemical; conditions: 2 h
Protocol: (§1) The radiochemical purity of samples incubated in PBS at each time point was determined using RP-HPLC. For the samples in human serum, a pretreatment step was applied. Briefly, the human serum samples underwent precipitation with acetonitrile, and the radiochemical purity of each supernatant aliquot was determined using RP-HPLC after centrifugation for 5 min at 10,000 rpm. The experiments were performed in triplicate.

[2] = Radiochemical stability in human serum at 37 °C; assay type: in vitro ADME; conditions: 2 h
Protocol: as §1

LNCaP cells = assay: Uptake and internalization in LNCaP cells; assay type: cell-based, human; conditions: 120 min incubation, normalized to 10^6 cells
Protocol: LNCaP prostate cancer cell line obtained from the American Type Culture Collection (ATCC, Manassas, VA) was used for cell affinity studies. […] The supernatant was disposed, and the cell pellet was resuspended in a culture medium, and LNCaP cells (150,000 cells/well) were counted with a hemocytometer and seeded in poly-L-lysine-coated 24-well plates used in cell binding studies. The cells were then allowed to grow at 37 °C for 48 h. PC3-PIP cells provided by Professor Xiaoyuan Chen (Singapore) require additional Puromycin (2 µg/ml) in addition to the appealed culture conditions.

[3] = tested on: PC3-PIP tumor-bearing balb/c-nu mice; assay: Biodistribution in PC3-PIP tumor model; assay type: in vivo; conditions: mean ± SD (n=5)
Protocol: All animal experiments were performed with the approval of the institutional animal ethics committee. Male NOD/SCID mice (5 − 6 weeks old) implanted with LNCaP cells were used for imaging and biodistribution experiments as previously described. The mice were imaged or used in biodistribution studies once the tumor grew to 8 − 10 mm in diameter over a period of 4 − 5 weeks. At the same time, male balb/c-nu mice (5 − 6 weeks old) implanted with PC3-PIP cells were used as an alternative tumor model for imaging and biodistribution experiments.
To conduct biodistribution studies, male mice bearing LNCaP or PC3-PIP tumors with an average body weight of approximately 20 ± 5 g and a tumor diameter of 8 − 10 mm were administered a bolus injection of 2.5 MBq of the corresponding radioligand via the tail vein. After 30, 60, and 120 min, the mice were anesthetized with isoflurane and subsequently euthanized by CO2 asphyxiation. Blood was drawn, and the organs of interest were promptly harvested, blotted dry, and weighed. The radioactivity of the collected mouse organs was measured and expressed as the percentage of the injected dose per gram of tissue (%ID/g). Each group consisted of at least five mice.

LNCaP tumors = assay: Micro-PET/CT blocking experiment with 2-PMPA, LNCaP tumor model; assay type: in vivo, mice; conditions: 40 nmol 2-PMPA 30 min before radioligand, static scan 60 min later
Protocol: (§2) To perform imaging studies, the male mice bearing LNCaP tumors were injected with the corresponding radioligand (~ 2.5 MBq; 100 μL) via their tail veins. The micro-PET/CT scans (Inveon PET, Siemens) were conducted at 10, 30, 60, and 120 min after injection. The mice were anesthetized and maintained under 2% isoflurane in oxygen at a flow rate of 2 L/min during the 2-h imaging study. First, a 10 min static PET imaging acquisition was carried out, followed by a 10 min CT scan for localization and attenuation correction. Data analysis was performed using Inveon Research Workplace software. For PC3-PIP tumor model, the imaging studies were performed with micro-PET/SPECT/CT (Inliview-3000B, Novel Medical). Data analysis was performed using Nmsoft-Al ws v1.7–1 software.
(§3) To evaluate the specificity of radioligands, blocking experiments were performed. In brief, 40 nmol of the PSMA inhibitor 2-PMPA was administered, followed by the injection of approximately 2.6 MBq of radioligands after 30 min. Then a static scan of micro-PET/CT was performed 60 min later.

PC3-PIP tumors = assay: Micro-PET/CT blocking experiment with 2-PMPA, PC3-PIP tumor model; assay type: in vivo, mice; conditions: identical methodology
Protocol: as §2, §3

[4] = tested on: LNCaP tumor-bearing NOD/SCID mice; conditions: mouse, in vivo
[5] = tested on: LNCaP tumor-bearing NOD/SCID mice; assay: Biodistribution in LNCaP tumor model

O=C([O-])CN1CCN(CC(=O)[O-])CCN(CC(=O)NCCOCCOCCOCCOCCOCCOCCOCCOCCNC(=O)CN(CCCC[C@H](NC(=O)N[C@@H](CCC(=O)O)C(=O)O)C(=O)O)C(=O)C2c3ccccc3-c3ccccc32)CCN(CC(=O)[O-])CC1.[68Ga+3] [[^68Ga]Ga-PP8-WD]
IC50 (PSMA): 6.13 ± 0.79 nM | Radiochemical purity after incubation in PBS [1]: 97% | Radiochemical purity after incubation in human serum [2]: 96.69 ± 0.21% | Internalization in LNCaP cells (LNCaP cells): 5.72 ± 0.95% | Uptake in LNCaP cells (LNCaP cells): 10.16 ± 1.87% | Blood uptake ([3]; 30 min p.i.): 5.2±0.77 %ID/g | Bone uptake ([3]; 30 min p.i.): 1.21±0.57 %ID/g | Brain uptake ([3]; 30 min p.i.): 0.13±0.05 %ID/g | Heart uptake ([3]; 30 min p.i.): 1.21±0.19 %ID/g | Kidney uptake ([3]; 30 min p.i.): 11.38±3.15 %ID/g | Liver uptake ([3]; 30 min p.i.): 1.11±0.10 %ID/g | Lung uptake ([3]; 30 min p.i.): 2.64±0.23 %ID/g | Muscle uptake ([3]; 30 min p.i.): 0.45±0.06 %ID/g | Salivary uptake ([3]; 30 min p.i.): 1.23±0.17 %ID/g | Small int (small intestine) uptake ([3]; 30 min p.i.): 0.87±0.18 %ID/g | Spleen uptake ([3]; 30 min p.i.): 1.39±0.26 %ID/g | Stomach uptake ([3]; 30 min p.i.): 0.83±0.17 %ID/g | Tumor uptake ([3]; 30 min p.i.): 12.81±4.48 %ID/g | Blood uptake ([3]; 60 min p.i.): 3.89±0.18 %ID/g | Bone uptake ([3]; 60 min p.i.): 1.26±0.07 %ID/g | Brain uptake ([3]; 60 min p.i.): 0.12±0.02 %ID/g | Heart uptake ([3]; 60 min p.i.): 1.09±0.12 %ID/g | Kidney uptake ([3]; 60 min p.i.): 4.52±1.51 %ID/g | Liver uptake ([3]; 60 min p.i.): 1.24±0.16 %ID/g | Lung uptake ([3]; 60 min p.i.): 2.25±0.13 %ID/g | Muscle uptake ([3]; 60 min p.i.): 0.52±0.07 %ID/g | Salivary uptake ([3]; 60 min p.i.): 1.49±0.37 %ID/g | Small int (small intestine) uptake ([3]; 60 min p.i.): 0.92±0.23 %ID/g | Spleen uptake ([3]; 60 min p.i.): 1.30±0.21 %ID/g | Stomach uptake ([3]; 60 min p.i.): 0.98±0.09 %ID/g | Tumor uptake ([3]; 60 min p.i.): 15.21 ± 3.33 %ID/g | Blood uptake ([3]; 120 min p.i.): 3.12±0.48 %ID/g | Bone uptake ([3]; 120 min p.i.): 1.62±0.13 %ID/g | Brain uptake ([3]; 120 min p.i.): 0.13±0.03 %ID/g | Heart uptake ([3]; 120 min p.i.): 0.94±0.16 %ID/g | Kidney uptake ([3]; 120 min p.i.): 2.74±0.38 %ID/g | Liver uptake ([3]; 120 min p.i.): 1.38±0.19 %ID/g | Lung uptake ([3]; 120 min p.i.): 2.16±0.14 %ID/g | Muscle uptake ([3]; 120 min p.i.): 0.43±0.11 %ID/g | Salivary uptake ([3]; 120 min p.i.): 1.26±0.27 %ID/g | Small int (small intestine) uptake ([3]; 120 min p.i.): 0.89±0.27 %ID/g | Spleen uptake ([3]; 120 min p.i.): 0.96±0.14 %ID/g | Stomach uptake ([3]; 120 min p.i.): 0.79±0.08. %ID/g | Tumor uptake ([3]; 120 min p.i.): 14.3±5.37 %ID/g | Radioactivity upon blocking with 2-PMPA (LNCaP tumors): substantially reduced radioactivity | Outcome of blocking imaging with 2-PMPA (PC3-PIP tumors): in concordance with those observed in the LNCaP tumor model | Renal uptake reduced by a factor compared to [68Ga]Ga-Flu-1 [4]: 20 | Renal uptake, fold less compared to [68Ga]Ga-Flu-1 [4]: fivefold | Tumor uptake ([4]; 0.5 h): 16.18 ± 2.53 %ID/g | Tumor uptake ([4]; 1 h): 18.64 ± 2.20 %ID/g | Tumor uptake ([4]; 2 h): 17.12 ± 2.57 %ID/g | Tumor/Blood ratio ([5]; 30 min): 4.67±0.32 | Tumor/Heart ratio ([5]; 30 min): 12.31±0.58 | Tumor/Kidney ratio ([5]; 30 min): 0.63±0.11 | Tumor/Liver ratio ([5]; 30 min): 10.58±0.32 | Tumor/Salivary ratio ([5]; 30 min): 5.23±0.24 | Tumor/Blood ratio ([5]; 60 min): 5.31±0.54 | Tumor/Heart ratio ([5]; 60 min): 31.66±2.2 | Tumor/Kidney ratio ([5]; 60 min): 1.22±0.35 | Tumor/Liver ratio ([5]; 60 min): 23.74±1.90 | Tumor/Salivary ratio ([5]; 60 min): 11.50±1.19 | Tumor/Blood ratio ([5]; 120 min): 30.88±1.36 | Tumor/Heart ratio ([5]; 120 min): 75.85±3.6 | Tumor/Kidney ratio ([5]; 120 min): 2.68±0.22 | Tumor/Liver ratio ([5]; 120 min): 41.69±2.9 | Tumor/Salivary ratio ([5]; 120 min): 45.05±2.56
